We go through 14 molecules from ChEMBL document CHEMBL1201862, “PubChem BioAssay data set” (2004).

Common to all, as to assay: growth of human tumour cells (NCI), 48 h
Test [1] has as its system SK-OV-3.
The test system of test [2] is KM12.
Test [3] concerns SNB-75.
Test [4] deals with HT-29.
Test [5] deals with SF-539.
Test [6] concerns 786-0.
Test [7] relates to EKVX.
The test system of test [8] is HCT-15.
Test [9] has as its system HOP-92.
The test system of test [10] is IGROV-1.
The test system of test [11] is T47D.
Test [12] has as its system SW-620.
Test [13] relates to UO-31.
Test [14] relates to MDA-MB-435.
For test [15], the system named is Hs-578T.
Test [16] concerns NCI-H522.
Test [17] relates to BT-549.

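Five compound concentrations were applied to cells in 96-well plates for 48 hours; endpoints were derived by simple linear interpolation of the resulting dose-response curve. GI50 is the concentration that inhibits growth by half.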 Active and inactive are the calls of the source. Cut-off read from the data, not from the text of the source: active = GI50 up to about 1.1 µM and inactive = higher.

On to `O=C(CCC(=O)CC(O)(C(F)(F)F)C(F)(F)F)CC(O)(C(F)(F)F)C(F)(F)F`, for which the GI50 is > 100 µM (inactive) in [1]; 26.4 µM (inactive) in test [2]; 82.8 µM (inactive) in test [3]; 29.7 µM (inactive) in [4]; 67.6 µM (inactive) in [5]; 46.1 µM (inactive) in [6]. For the same molecule, the GI50 is 35 µM (inactive) in test [7]; 35 µM in [8]; 20.7 µM (inactive) in test [9]; 29.7 µM (inactive) in [10]; 29.2 µM (inactive) in test [11]; 63.5 µM (inactive) in test [12]. For the same molecule, the GI50 in test [13] is 23.5 µM (inactive); in test [14], 47.9 µM (inactive); in test [15], 29.4 µM (inactive).

Take `OCC(O)C1OC2CC1Nc1ccccc1N2` (stereo unspecified): the GI50 in test [1] was > 100 µM (inactive); in test [2], > 100 µM (inactive); in test [3], > 100 µM (inactive); in test [4] it was > 100 µM (inactive); in test [5], > 88.7 µM (inactive); in test [6], > 100 µM (inactive). Further, the GI50 in [7] is > 100 µM (inactive); in test [8], more than 100 µM; in test [9], > 100 µM (inactive); in test [10] it was > 100 µM (inactive); in test [16], > 100 µM (inactive); in test [11] it was > 100 µM (inactive). Moreover, the GI50 in test [12], in test [13], in test [14] and in test [15] was > 100 µM (inactive) each time.

For `CN1CCN(C2CC(=O)c3c(Cl)sc(Cl)c32)CC1` (stereo unspecified), the GI50 in test [1] is > 54.6 µM (inactive); in test [17], 20.3 µM (inactive); in test [2], 10.8 µM (inactive); in test [3], 14.7 µM (inactive); in test [4], 11.4 µM (inactive); in test [5], 17.3 µM (inactive). The GI50 was 7.21 µM (inactive) in [6]; 23.9 µM (inactive) in test [7]; 10.4 µM in [8]; 10.4 µM (inactive) in test [9]; 8.69 µM (inactive) in test [10]; 4.8 µM (inactive) in test [16]. Besides, the GI50 in test [11] is 18.5 µM (inactive); in test [12], 7.94 µM (inactive); in [13] it was 7.6 µM (inactive); in test [14] it was 7.05 µM (inactive).

Turning to `O=C1C=CC(=O)c2c1ccc1c3ccccc3n(Cc3ccc([N+](=O)[O-])cc3)c21`, the GI50 in [1], in test [17], in test [2], in test [3], in [4] and in test [5] was > 100 µM (inactive) throughout. Further, the GI50 is > 100 µM (inactive) in test [6]; > 100 µM (inactive) in [7]; 70.1 µM in test [8]; > 100 µM (inactive) in test [10]; 26.6 µM (inactive) in test [16]; 52.8 µM (inactive) in [11]. Also, the GI50 is 38.7 µM (inactive) in test [12], > 100 µM (inactive) in test [13] and > 100 µM (inactive) in [14].

Regarding `CC(=O)Oc1ccc2cc(Oc3ccccc3)c(=O)oc2c1`, the GI50 in test [17] was 39.9 µM (inactive); in test [2], > 100 µM (inactive); in test [3], 90.6 µM (inactive); in test [4], > 100 µM (inactive); in test [5], > 100 µM (inactive); in test [6] it was > 100 µM (inactive). In addition, the GI50 in [7] is > 100 µM (inactive); in test [8], 53.3 µM; in test [9], 62.7 µM (inactive); in test [10] it was > 100 µM (inactive); in test [16] it was 30.5 µM (inactive); in test [11], 36.1 µM (inactive). Besides, the GI50 in test [12] is > 100 µM (inactive); in test [13] it was 61 µM (inactive); in [15], > 100 µM (inactive).

Regarding `CCOC(=O)C1C(c2ccccc2)C2(C#N)C(=N)OC1(C)C2(C#N)C#N` (stereo unspecified), the GI50 was > 100 µM (inactive) in test [1]; > 10 µM (inactive) in test [2]; 1.51 µM (inactive) in test [3]; 16 µM (inactive) in test [4]; 18.1 µM (inactive) in [5]; 13.6 µM (inactive) in test [6]. The GI50 in test [7] was 21.1 µM (inactive); in test [8], 37.3 µM; in test [9], 20 µM (inactive); in [10], 18.5 µM (inactive); in test [11], 32.1 µM (inactive); in test [12], 44.8 µM (inactive). Besides, the GI50 is 16.2 µM (inactive) in test [13], 22.4 µM (inactive) in test [14] and 29.5 µM (inactive) in test [15].

With `CN(C)C1(N(C)C)Oc2c(c(=O)n(C)c(=O)n2C)C(c2ccc(Br)cc2)C1(F)F` (stereo unspecified), the GI50 in test [1], in [17], in [2], in [3], in test [6] and in [7] was > 100 µM (inactive) each time. The GI50 in test [8] is more than 100 µM; in test [9], 82.4 µM (inactive); in test [11], > 100 µM (inactive); in test [12] it was > 100 µM (inactive); in [13] it was > 100 µM (inactive); in [14] it was > 100 µM (inactive).

With `Cc1cc(C#N)c[n+](C)c1`, the GI50 in test [1], in [17], in [2], in [3], in test [4] and in [5] was > 100 µM (inactive) throughout. The GI50 is > 100 µM (inactive) in [6]; > 100 µM (inactive) in [7]; more than 100 µM in test [8]; > 100 µM (inactive) in test [10]; > 100 µM (inactive) in [16]; > 100 µM (inactive) in test [11]. Besides, the GI50 in test [12], in [13] and in test [15] was > 100 µM (inactive) each time.

Take `COC(=O)C1CCC(=O)N1C(c1cc(OC)c(OC)c(OC)c1)c1cc(OC)c(OC)c(OC)c1` (stereo unspecified): the GI50 in [1], in test [2], in test [3], in test [4], in [5] and in test [6] was > 100 µM (inactive) in each case. The GI50 in test [7] is > 100 µM (inactive); in test [8], more than 100 µM; in [9], > 100 µM (inactive); in test [10], 94.6 µM (inactive); in [16], > 100 µM (inactive); in [11], > 100 µM (inactive). Also, the GI50 in test [12], in test [13], in test [14] and in test [15] was > 100 µM (inactive) throughout.

In the case of `C1=C[C@]2(CCC13OCCO3)COc1ccccc12`, the GI50 in [1] was 53.2 µM (inactive); in [2], 26.3 µM (inactive); in test [3] it was 42.3 µM (inactive); in [4], 28.5 µM (inactive); in test [6], 54.3 µM (inactive); in [7], 66.1 µM (inactive). The GI50 in test [8] was 28 µM; in test [9] it was 46.7 µM (inactive); in test [11], 47 µM (inactive); in test [12] it was 54.8 µM (inactive); in test [13] it was 35.3 µM (inactive); in [14], 31.9 µM (inactive).

For the molecule `O=C1CSC(=S)N1c1ccco1`, the GI50 was > 100 µM (inactive) in test [1]; 16.3 µM (inactive) in test [17]; 21.9 µM (inactive) in [2]; > 100 µM (inactive) in test [4]; 66.7 µM (inactive) in test [5]; 25.4 µM (inactive) in [6]. The GI50 in [7] was > 100 µM (inactive); in test [8] it was 22 µM; in test [9], > 100 µM (inactive); in test [10], > 100 µM (inactive); in test [16], 23.4 µM (inactive); in [12], 41.1 µM (inactive). Moreover, the GI50 in test [14] was 24.2 µM (inactive); in test [15], > 100 µM (inactive).

For the molecule `CC1=C(OC2OC(CO)C(O)C(O)C2O)C(=O)C[C@H]2C1=CC[C@@H]1[C@@]2(C)C(=O)C[C@]2(C)[C@@H]([C@@](C)(O)C(=O)CCC(C)(C)O)[C@H](O)C[C@@]12C` (stereo partly specified), the GI50 in test [1], in [17], in test [2], in [3], in [4] and in [5] was > 100 µM (inactive) throughout. In addition, the GI50 was > 100 µM (inactive) in test [6]; > 100 µM (inactive) in test [7]; more than 100 µM in [8]; > 100 µM (inactive) in test [9]; > 100 µM (inactive) in [10]; > 100 µM (inactive) in test [16]. In addition, the GI50 in [11], in test [12], in test [13] and in [14] was > 100 µM (inactive) throughout.

For the molecule `CC(C)C1=CC23CCC4C(C)(C(=O)O)CCCC4(C)C2CC1C1C(=O)N(c2cccc(N4C(=O)C5C6CC7C8(C)CCCC(C)(C(=O)O)C8CCC7(C=C6C(C)C)C5C4=O)c2)C(=O)C13` (stereo unspecified), the GI50 in [2] was 2.75 µM (inactive); in test [4], 3.84 µM (inactive); in test [5] it was 9.08 µM (inactive); in test [6] it was 32 µM (inactive); in [7] it was 6.46 µM (inactive); in [8], 11.4 µM. Further, the GI50 in test [9] is 23.4 µM (inactive); in [16], 14.2 µM (inactive); in [11] it was 16.8 µM (inactive); in test [12] it was 16.3 µM (inactive); in [13] it was 14.8 µM (inactive); in test [14] it was 4.02 µM (inactive). Also, the GI50 in [15] is 3.77 µM (inactive).

As to `C/C(=N\NC(=O)c1ccncc1)c1ccccc1F`, the GI50 in [1] was > 10 µM (inactive); in test [2] it was > 10 µM (inactive); in [3], > 10 µM (inactive); in [5], > 10 µM (inactive); in test [6], > 10 µM (inactive); in [8] it was more than 10 µM. The GI50 in test [9] is 2.37 µM (inactive); in test [10] it was > 10 µM (inactive); in test [11], > 10 µM (inactive); in test [12], > 10 µM (inactive); in test [13], > 10 µM (inactive).
